Source: ChEMBL document CHEMBL5052831, “Serpin inhibitors for the treatment of prion and prion-like diseases” (2021)

Test system: ScGT1
Assay: Inhibition of SERPINA3N in mouse GT1 cells chronically infected with RML prion (ScGT1) assessed as reduction of PrPSc levels measured by western blot analysis
Format: cell-based
Parameters: concentration or dose not given beside the values

Structure (SMILES)	Activity [%]
CC(=O)N1CCC(C(=O)c2cnn(-c3cccc(F)c3)c2N)CC1	50
Cc1ccc(-n2ncc(C(=O)C3CCN(C(=O)C4CCC4)C3)c2N)cc1 (configuration not stated)	50
Cc1ccc(-n2ncc(C(=O)C3CCN(C(=O)c4scnc4C)CC3)c2N)cc1	50
Nc1c(C(=O)C2CCN(C(=O)c3ccno3)CC2)cnn1-c1ccccc1	50
Cc1n[nH]c(C)c1CNC(=O)c1cnn(-c2ccc(F)cc2)c1	50
O=C(NC1CCCOC1)c1cnn(-c2ccc(F)cc2)c1 (configuration not stated)	50
Nc1c(C(=O)c2c[nH]c3ccccc23)cnn1-c1ccccc1	50
